Experimental data as given in patent US8916183B2, “Pesticidal compositions and processes related thereto” (priority 2012, dated 2014).

Tests used:
[1] = tested on: Corn Earworm (CEW) (Helicoverpa zea); assay: Bioassay on corn earworm (CEW), 128-well diet tray assay; assay type: in vivo; details: Helicoverpa zea; corn earworm, 50 μg/cm^2; read-out: % Mortality CEW 50 μg/cm^2
Procedure: (§1) Certain molecules disclosed in this document were tested against BAW and CEW using procedures described in the following examples. In the reporting of the results, the “BAW & CEW Rating Table” was used (See Table Section).
Bioassays on CEW (Helicoverpa zea)
Bioassays on CEW were conducted using a 128-well diet tray assay. […] Trays were covered with a clear self-adhesive cover and held at 25° C., 14:10 light-dark for five to seven days. Percent mortality was recorded for the larvae in each well; activity in the eight wells was then averaged. The results are indicated in the table entitled “Table 5: Biological Results” (See Table Section).

[2] = tested on: Beet Armyworm (BAW) (Spodoptera exigua); assay: Bioassay on beet armyworm (BAW), 128-well diet tray assay; assay type: in vivo; details: Spodoptera exigua; beet armyworm, 50 μg/cm^2; read-out: % Mortality BAW 50 μg/cm^2
Procedure: as §1
Bioassays on BAW (Spodoptera exigua)
Bioassays on BAW were conducted using a 128-well diet tray assay. […] Trays were covered with a clear self-adhesive cover and held at 25° C., 14:10 light-dark for five to seven days. Percent mortality was recorded for the larvae in each well; activity in the eight wells was then averaged. The results are indicated in the table entitled “Table 5: Biological Results” (See Table Section).

Cc1cc(C)c(N2/C(=N/N=C/c3ccc(-c4ncn(-c5ccc(OC(F)(F)F)cc5)n4)cc3)SCC2C)c(C)c1 (stereo not shown) [Compound 161C]
mortality at 50 µg/cm2 [1]: 50 to 100%
mortality at 50 µg/cm2 [2]: 50 to 100%

COc1ccc(N2/C(=N/N=C/c3ccc(-c4ncn(-c5ccc(OC(F)(F)F)cc5)n4)cc3)SCC2C)c(C)c1 (stereo not shown) [Compound 162C]
mortality at 50 µg/cm2 [1]: 50 to 100%
mortality at 50 µg/cm2 [2]: 50 to 100%

CCC(C)c1ccccc1N1/C(=N/N=C/c2ccc(-c3ncn(-c4ccc(OC(F)(F)F)cc4)n3)cc2)SCC1C (stereo not shown) [Compound 163C]
mortality at 50 µg/cm2 [1]: 50 to 100%
mortality at 50 µg/cm2 [2]: 50 to 100%

CC1CS/C(=N\N=C\c2ccc(-c3ncn(-c4ccc(OC(F)(F)F)cc4)n3)cc2)N1c1ccccc1OC(F)F (stereo not shown) [Compound 164C]
mortality at 50 µg/cm2 [1]: 50 to 100%
mortality at 50 µg/cm2 [2]: 50 to 100%

CC1CS/C(=N\N=C\c2ccc(-c3ncn(-c4ccc(OC(F)(F)F)cc4)n3)cc2)N1c1ccccc1C(C)(C)C (stereo not shown) [Compound 165C]
mortality at 50 µg/cm2 [1]: 50 to 100%
mortality at 50 µg/cm2 [2]: 50 to 100%

CCC1CS/C(=N\N=C\c2ccc(-c3ncn(-c4ccc(OC(F)(F)F)cc4)n3)cc2)N1c1ccccc1C (stereo not shown) [Compound 166C]
mortality at 50 µg/cm2 [1]: 50 to 100%
mortality at 50 µg/cm2 [2]: 50 to 100%

CCC1CS/C(=N\N=C\c2ccc(-c3ncn(-c4ccc(OC(F)(F)F)cc4)n3)cc2)N1c1c(C)cccc1Cl (stereo not shown) [Compound 167C]
mortality at 50 µg/cm2 [1]: 50 to 100%
mortality at 50 µg/cm2 [2]: 50 to 100%

Cc1cs/c(=N\N=C\c2ccc(-c3ncn(-c4ccc(OC(F)(F)F)cc4)n3)cc2)n1-c1c(Cl)cccc1C(F)(F)F [Compound 169C]
mortality at 50 µg/cm2 [1]: 50 to 100%
mortality at 50 µg/cm2 [2]: 50 to 100%

Cc1cs/c(=N\N=C\c2ccc(-c3ncn(-c4ccc(OC(F)(F)F)cc4)n3)cc2)n1-c1ccccc1OC(F)(F)F [Compound 170C]
mortality at 50 µg/cm2 [1]: 50 to 100%
mortality at 50 µg/cm2 [2]: 50 to 100%

Cc1cs/c(=N\N=C\c2ccc(-c3ncn(-c4ccc(OC(F)(F)F)cc4)n3)cc2)n1-c1c(F)cccc1F [Compound 171C]
mortality at 50 µg/cm2 [1]: 50 to 100%
mortality at 50 µg/cm2 [2]: 50 to 100%

Cc1cs/c(=N\N=C\c2ccc(-c3ncn(-c4ccc(OC(F)(F)F)cc4)n3)cc2)n1-c1ccccc1C(C)C [Compound 176C]
mortality at 50 µg/cm2 [1]: 50 to 100%
mortality at 50 µg/cm2 [2]: 50 to 100%

FC(F)(F)Oc1ccc(-n2cnc(-c3ccc(/C=N/N=C4\SCCCN4c4ccccc4OC(F)(F)F)cc3)n2)cc1 [Compound 199C]
mortality at 50 µg/cm2 [1]: 50 to 100%
mortality at 50 µg/cm2 [2]: 50 to 100%

CCOC(=O)c1ccc(N2CCCS/C2=N\N=C\c2ccc(-c3ncn(-c4ccc(OC(F)(F)F)cc4)n3)cc2)cc1 [Compound 207C]
mortality at 50 µg/cm2 [1]: 0%
mortality at 50 µg/cm2 [2]: 0%

CC(C)(C)c1ccccc1N1CCCS/C1=N\N=C\c1ccc(-c2ncn(-c3ccc(OC(F)(F)F)cc3)n2)cc1 [Compound 210C]
mortality at 50 µg/cm2 [1]: 50 to 100%
mortality at 50 µg/cm2 [2]: 50 to 100%

CC1CS/C(=N\N=C\c2ccc(-c3ncn(-c4ccc(OC(F)(F)F)cc4)n3)cc2)N(c2ccccc2OC(F)(F)F)C1 (stereo not shown) [Compound 214C]
mortality at 50 µg/cm2 [1]: 50 to 100%
mortality at 50 µg/cm2 [2]: 50 to 100%

CC1CS/C(=N\N=C\c2ccc(-c3ncn(-c4ccc(OC(F)(F)F)cc4)n3)cc2)N(c2c(Cl)cccc2C(F)(F)F)C1 (stereo not shown) [Compound 215C]
mortality at 50 µg/cm2 [1]: 50 to 100%
mortality at 50 µg/cm2 [2]: 50 to 100%

CC1CCS/C(=N\N=C\c2ccc(-c3ncn(-c4ccc(OC(F)(F)F)cc4)n3)cc2)N1c1ccccc1OC(F)(F)F (stereo not shown) [Compound 216C]
mortality at 50 µg/cm2 [1]: 50 to 100%
mortality at 50 µg/cm2 [2]: 50 to 100%

CC1CCS/C(=N\N=C\c2ccc(-c3ncn(-c4ccc(OC(F)(F)F)cc4)n3)cc2)N1c1c(Cl)cccc1C(F)(F)F (stereo not shown) [Compound 217C]
mortality at 50 µg/cm2 [1]: 50 to 100%
mortality at 50 µg/cm2 [2]: 50 to 100%

Cc1cc(C)c(N2/C(=N/N=C/c3ccc(-c4ncn(-c5ccc(OC(F)(F)F)cc5)n4)cc3)SCCC2C)c(C)c1 (stereo not shown) [Compound 218C]
mortality at 50 µg/cm2 [1]: 50 to 100%
mortality at 50 µg/cm2 [2]: 50 to 100%

COc1ccc(N2/C(=N/N=C/c3ccc(-c4ncn(-c5ccc(OC(F)(F)F)cc5)n4)cc3)SCCC2C)c(C)c1 (stereo not shown) [Compound 219C]
mortality at 50 µg/cm2 [1]: 50 to 100%
mortality at 50 µg/cm2 [2]: 50 to 100%

CCC(C)c1ccccc1N1/C(=N/N=C/c2ccc(-c3ncn(-c4ccc(OC(F)(F)F)cc4)n3)cc2)SCCC1C (stereo not shown) [Compound 220C]
mortality at 50 µg/cm2 [1]: 50 to 100%
mortality at 50 µg/cm2 [2]: 50 to 100%

CC1CCS/C(=N\N=C\c2ccc(-c3ncn(-c4ccc(OC(F)(F)F)cc4)n3)cc2)N1c1ccccc1OC(F)F (stereo not shown) [Compound 221C]
mortality at 50 µg/cm2 [1]: 50 to 100%
mortality at 50 µg/cm2 [2]: 50 to 100%

CC1CCS/C(=N\N=C\c2ccc(-c3ncn(-c4ccc(OC(F)(F)F)cc4)n3)cc2)N1c1ccccc1C(C)(C)C (stereo not shown) [Compound 222C]
mortality at 50 µg/cm2 [1]: 50 to 100%
mortality at 50 µg/cm2 [2]: 50 to 100%

Cc1cccc(C)c1N1C(=O)CCS/C1=N\N=C\c1ccc(-c2ncn(-c3ccc(OC(F)(F)F)cc3)n2)cc1 [Compound 223C]
mortality at 50 µg/cm2 [1]: 50 to 100%
mortality at 50 µg/cm2 [2]: 50 to 100%

CCc1cccc(C)c1N1C(=O)CCS/C1=N\N=C\c1ccc(-c2ncn(-c3ccc(OC(F)(F)F)cc3)n2)cc1 [Compound 225C]
mortality at 50 µg/cm2 [1]: 50 to 100%
mortality at 50 µg/cm2 [2]: 50 to 100%

O=C1CCS/C(=N\N=C\c2ccc(-c3ncn(-c4ccc(OC(F)(F)F)cc4)n3)cc2)N1c1c(F)cccc1F [Compound 226C]
mortality at 50 µg/cm2 [1]: 50 to 100%
mortality at 50 µg/cm2 [2]: 50 to 100%

Cc1cccc(Cl)c1N1C(=O)CCS/C1=N\N=C\c1ccc(-c2ncn(-c3ccc(OC(F)(F)F)cc3)n2)cc1 [Compound 227C]
mortality at 50 µg/cm2 [1]: 50 to 100%
mortality at 50 µg/cm2 [2]: 50 to 100%

O=C1CCS/C(=N\N=C\c2ccc(-c3ncn(-c4ccc(OC(F)(F)F)cc4)n3)cc2)N1c1c(Cl)cccc1C(F)(F)F [Compound 228C]
mortality at 50 µg/cm2 [1]: 50 to 100%
mortality at 50 µg/cm2 [2]: 50 to 100%

CC(F)(F)Oc1ccccc1N1C(=O)CCS/C1=N\N=C\c1ccc(-c2ncn(-c3ccc(OC(F)(F)F)cc3)n2)cc1 [Compound 229C]
mortality at 50 µg/cm2 [1]: 50 to 100%
mortality at 50 µg/cm2 [2]: 50 to 100%

CCC(C)c1ccccc1N1C(=O)CCS/C1=N\N=C\c1ccc(-c2ncn(-c3ccc(OC(F)(F)F)cc3)n2)cc1 (stereo not shown) [Compound 230C]
mortality at 50 µg/cm2 [1]: 50 to 100%
mortality at 50 µg/cm2 [2]: 50 to 100%

COc1ccc(N2C(=O)CCS/C2=N\N=C\c2ccc(-c3ncn(-c4ccc(OC(F)(F)F)cc4)n3)cc2)c(C)c1 [Compound 231C]
mortality at 50 µg/cm2 [1]: 50 to 100%
mortality at 50 µg/cm2 [2]: 50 to 100%

CC(C)(C)c1ccccc1N1C(=O)CCS/C1=N\N=C\c1ccc(-c2ncn(-c3ccc(OC(F)(F)F)cc3)n2)cc1 [Compound 232C]
mortality at 50 µg/cm2 [1]: 50 to 100%
mortality at 50 µg/cm2 [2]: 50 to 100%

O=C1CCS/C(=N\N=C\c2ccc(-c3ncn(-c4ccc(OC(F)(F)F)cc4)n3)cc2)N1c1ccccc1OC(F)F [Compound 233C]
mortality at 50 µg/cm2 [1]: 50 to 100%
mortality at 50 µg/cm2 [2]: 50 to 100%

Cc1cccc(C(C)C)c1N1C(=O)CS/C1=N\N=C\c1ccc(-c2ncn(-c3ccc(OC(F)(F)F)cc3)n2)cc1 [Compound 238C]
mortality at 50 µg/cm2 [1]: 50 to 100%
mortality at 50 µg/cm2 [2]: 50 to 100%

CC1(O)CS/C(=N\c2c(Cl)cccc2C(F)(F)F)N1/N=C/c1ccc(-c2ncn(-c3ccc(OC(F)(F)F)cc3)n2)cc1 (stereo not shown) [Compound 241C, (Z)-2-((2-chloro-6-(trifluoromethyl)phenyl)imino)-4-methyl-3-((E)-(4-(1-(4-(trifluoromethoxy)phenyl)-1H-1,2,4-triazol-3-yl)benzylidene)amino)thiazolidin-4-ol]
mortality at 50 µg/cm2 [1]: 50 to 100%
mortality at 50 µg/cm2 [2]: 50 to 100%
